Data reported in PubChem BioAssay AID1963983 (Molecular Pharmacology Branch, DTP, NCI, 2024).

Test system: 186277-243-T-J2-PDC multi-cell spheroid viability
Assay: Anticancer human tumor 186277-243-T-J2-PDC patient-derived colon adenocarcinoma cell line growth inhibition [PI3K]
Conditions: for IC50: curve of first compound; for viability, T/C: stronger effect = lower value
Excerpt: Combinatorial screen of targeted agents with the PI3K inhibitors inavolisib, alpelisib, duvelisib, and copanlisib in multi-cell type tumor spheroids
A high-throughput screen of multi-cell type tumor spheroids was designed to identify active combinations of targeted small molecules and PI3K pathway inhibitors. Complex spheroids include a stromal component modeled by human endothelial cells (HUVEC) and fibroblasts modeled by human mesenchymal stem cells (MSCs). The concentration ranges selected for each drug and investigational agent were based upon clinically achievable concentrations if the clinical Cmax of the agent was known.
Compounds. The drugs and investigational agents: inavolisib (NSC800729), alpelisib (NSC765974), duvelisib (NSC772469), copanlisib (NSC816437), ipatasertib (NSC767898), afuresertib (NSC778305), talazoparib (NSC767125), sapanisertib (NSC764658), selumetinib (NSC741078), tovorafenib (DAY101, NSC766906), vemurafenib (NSC761431), ravoxertinib (NSC781343), sotorasib (NSC818433), MRTX1133 (NSC 836407), abemaciclib (NSC 768073), palbociclib (NSC758247), venetoclax (NSC 766270), SY5609 (NSC837396), enzalutamide (NSC755605), and darolutamide (NSC825331), were obtained from the National Cancer Institute (NCI) Developmental Therapeutics Program Chemical Repository. The FDA-approved anticancer drug set is available from the NCI Developmental Therapeutics Program. […] The stock solutions were prepared in dimethyl sulfoxide (DMSO, Sigma-Aldrich, St. Louis, MO, cat. D2650) at 800-fold the tested concentration and stored at -70 degrees C prior to their use. All drugs and investigational agents were tested over a range starting from a high concentration at or near the clinical Cmax and decreasing in half-log increments. If the clinical Cmax for an agent had not been determined, the highest concentration tested was 10 microM.
Cell Culture. All cells were maintained in an incubator at 37 degrees C and 5% CO2 with 95% humidity. The PDC lines were cultured according to standard operating procedures established by the NCI PDMR (https://pdmr.cancer.gov/sops/default.htm). All PDCs were thawed and cultured in Matrigel-coated flasks prepared with a working solution of 1X Ham's F-12 nutrient mix, without supplementation (Invitrogen, Waltham, MA, cat. 11765054), 100 U/mL penicillin-streptomycin (Invitrogen, cat. 15140122), and 2.5% Matrigel (Corning Inc., Corning, NY, cat. 354248) for the first three passages. The 354836-022-R-J1-PDC, 475296-252-R-J1-PDC, and 997726-040-R-J2-PDC lines were cultured in 6A media, which includes advanced DMEM/F-12 (Thermo Fisher Scientific, cat. 12634028), 10 mM HEPES (Thermo Fisher Scientific, cat. 15630080), 1X GlutaMAX supplement (Thermo Fisher Scientific, cat. 35050061), 0.1 mg/mL primocin (InvivoGen, San Diego, CA, cat. ant-pm-2), 10% defined fetal bovine serum, heat inactivated (HyClone Laboratories Inc., Logan, UT, cat. SH30070.03HI), 50% L-WRN conditioned media (ATCC, cat. CRL-3276), 1.25 mM N-Acetyl-L-cysteine (Sigma-Aldrich, cat. A9165), 10 mM nicotinamide (Sigma-Aldrich, cat. N0636), 1X B-27 supplement (Thermo Fisher Scientific, cat. 17504044), 1X N-2 supplement (Thermo Fisher Scientific, cat. 17502048), and 10 microM Y-27632 dihydrochloride (Tocris Bioscience, Bristol, United Kingdom, cat. 1254). The 624824-186-R-J2-PDC line was cultured in 6C/Colon 1B media, which includes all 6A media components plus 50 ng/mL human EGF recombinant protein (Thermo Fisher Scientific, cat. PHG0311). […]

[1] = second compound 0.00316 µM, first compound 0.0316 µM
[2] = second compound 0.00316 µM, first compound 0.1 µM
[3] = second compound 0.01 µM, first compound 0.0316 µM
[4] = second compound 0.01 µM, first compound 0.1 µM
[5] = second compound 0.0316 µM, first compound 0.0316 µM
[6] = second compound 0.0316 µM, first compound 0.1 µM
[7] = second compound 0.1 µM, first compound 0.0316 µM
[8] = second compound 0.1 µM, first compound 0.1 µM
[9] = second compound 0.316 µM, first compound 0.0316 µM
[10] = second compound 0.316 µM, first compound 0.1 µM
[11] = second compound 1 µM, first compound 0.0316 µM
[12] = second compound 1 µM, first compound 0.1 µM
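Also: spheroids exposed to compounds for seven days before viability reading.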
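For viability, T/C in this document: 100% = DMSO vehicle control viability.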

Work on `CC(C)n1nc(-c2ccc3oc(N)nc3c2)c2c(N)ncnc21` + CC(Nc1ccc2c(c1)OCCn1cc(N3C(=O)OCC3C(F)F)nc1-2)C(N)=O yielded an IC50 (second compound 0.00316 µM) of 52.9 nM, an IC50 (second compound 0.01 µM) of 55.2 nM and an IC50 (second compound 0.0316 µM) of 47.5 nM. It also gave an IC50 (second compound 0.1 µM) of 30.4 nM, an IC50 (second compound 0.316 µM) of 8.51 nM and an IC50 (second compound 1 µM) of under 0.316 nM. It also gave a viability, T/C (second compound 0.00316 µM, first compound 0.000316 µM) of 90%, a viability, T/C (second compound 0.00316 µM, first compound 0.001 µM) of 101% and a viability, T/C (second compound 0.00316 µM, first compound 0.00316 µM) of 104%. For the same molecule, the viability, T/C (second compound 0.00316 µM, first compound 0.01 µM) was 93.7%, the viability, T/C [1] was 75.1% and the viability, T/C [2] was 19.1%. The viability, T/C (second compound 0.01 µM, first compound 0.000316 µM) was 116%, the viability, T/C (second compound 0.01 µM, first compound 0.001 µM) was 87.5% and the viability, T/C (second compound 0.01 µM, first compound 0.00316 µM) was 113%. For the same molecule, the viability, T/C (second compound 0.01 µM, first compound 0.01 µM) was 93.1%, the viability, T/C [3] was 73.5% and the viability, T/C [4] was 25.3%. The viability, T/C (second compound 0.0316 µM, first compound 0.000316 µM) was 107%, the viability, T/C (second compound 0.0316 µM, first compound 0.001 µM) was 116% and the viability, T/C (second compound 0.0316 µM, first compound 0.00316 µM) was 97.9%. The viability, T/C (second compound 0.0316 µM, first compound 0.01 µM) was 89.9%, the viability, T/C [5] was 69.7% and the viability, T/C [6] was 17.5%. It also gave a viability, T/C (second compound 0.1 µM, first compound 0.000316 µM) of 95.8%, a viability, T/C (second compound 0.1 µM, first compound 0.001 µM) of 94.2% and a viability, T/C (second compound 0.1 µM, first compound 0.00316 µM) of 92.5%. It also gave a viability, T/C (second compound 0.1 µM, first compound 0.01 µM) of 82.4%, a viability, T/C [7] of 48.8% and a viability, T/C [8] of 8.12%. The viability, T/C (second compound 0.316 µM, first compound 0.000316 µM) was 81.7%, the viability, T/C (second compound 0.316 µM, first compound 0.001 µM) was 80.3% and the viability, T/C (second compound 0.316 µM, first compound 0.00316 µM) was 63.5%. The viability, T/C (second compound 0.316 µM, first compound 0.01 µM) was 49.7%, the viability, T/C [9] was 22.6% and the viability, T/C [10] was 6.29%. The viability, T/C (second compound 1 µM, first compound 0.000316 µM) was 46.9%, the viability, T/C (second compound 1 µM, first compound 0.001 µM) was 39.3% and the viability, T/C (second compound 1 µM, first compound 0.00316 µM) was 37.6%. For the same molecule, the viability, T/C (second compound 1 µM, first compound 0.01 µM) was 24.3%, the viability, T/C [11] was 8.53% and the viability, T/C [12] was 3.88%.

`CC1(C)CCC(Nc2ncc(C(F)(F)F)c(-c3c[nH]c4c(P(C)(C)=O)c(C#N)ccc34)n2)CN1` (centres undefined) + COc1c(OCCCN2CCOCC2)ccc2c3n(c(=NC(=O)c4cnc(N)nc4)nc12)CCN3 gave an IC50 (second compound 0.00316 µM) of 3590 nM, an IC50 (second compound 0.01 µM) of 1230 nM and an IC50 (second compound 0.0316 µM) of under 31.6 nM. The IC50 (second compound 0.1 µM) was under 31.6 nM, the IC50 (second compound 0.316 µM) was under 31.6 nM and the IC50 (second compound 1 µM) was under 31.6 nM. It also gave a viability, T/C [1] of 64.8%, a viability, T/C [2] of 57.4% and a viability, T/C (second compound 0.00316 µM, first compound 0.316 µM) of 52%. For the same molecule, the viability, T/C (second compound 0.00316 µM, first compound 1 µM) was 55.4%, the viability, T/C (second compound 0.00316 µM, first compound 3.16 µM) was 56.2% and the viability, T/C (second compound 0.00316 µM, first compound 10 µM) was 0.33%. For the same molecule, the viability, T/C [3] was 71.5%, the viability, T/C [4] was 54.7% and the viability, T/C (second compound 0.01 µM, first compound 0.316 µM) was 50.8%. The viability, T/C (second compound 0.01 µM, first compound 1 µM) was 54.1%, the viability, T/C (second compound 0.01 µM, first compound 3.16 µM) was 40.6% and the viability, T/C (second compound 0.01 µM, first compound 10 µM) was 0.85%. The viability, T/C [5] was 37.3%, the viability, T/C [6] was 36.6% and the viability, T/C (second compound 0.0316 µM, first compound 0.316 µM) was 26.8%. For the same molecule, the viability, T/C (second compound 0.0316 µM, first compound 1 µM) was 25.9%, the viability, T/C (second compound 0.0316 µM, first compound 3.16 µM) was 14.5% and the viability, T/C (second compound 0.0316 µM, first compound 10 µM) was 1.27%. The viability, T/C [7] was 7.6%, the viability, T/C [8] was 10.5% and the viability, T/C (second compound 0.1 µM, first compound 0.316 µM) was 7.54%. For the same molecule, the viability, T/C (second compound 0.1 µM, first compound 1 µM) was 6.56%, the viability, T/C (second compound 0.1 µM, first compound 3.16 µM) was 5.27% and the viability, T/C (second compound 0.1 µM, first compound 10 µM) was 1.02%. It also gave a viability, T/C [9] of 2.73%, a viability, T/C [10] of 3.91% and a viability, T/C (second compound 0.316 µM, first compound 0.316 µM) of 3.66%. The viability, T/C (second compound 0.316 µM, first compound 1 µM) was 3.38%, the viability, T/C (second compound 0.316 µM, first compound 3.16 µM) was 1.31% and the viability, T/C (second compound 0.316 µM, first compound 10 µM) was 0.34%. For the same molecule, the viability, T/C [11] was 2.08%, the viability, T/C [12] was 1.57% and the viability, T/C (second compound 1 µM, first compound 0.316 µM) was 1.5%. It also gave a viability, T/C (second compound 1 µM, first compound 1 µM) of 1.26%, a viability, T/C (second compound 1 µM, first compound 3.16 µM) of 1.04% and a viability, T/C (second compound 1 µM, first compound 10 µM) of 0.42%.
